Results: patent publication US20230113802A1, “COMPOSITION AND METHOD TO PREPARE LONG-ACTING INJECTABLE SUSPENSION CONTAINING MULTIPLE CANCER DRUGS” (University of Washington, priority 2020, published 2023)
Values joined by “and” are separate entries in the source; they are usually repeats but may differ in a detail not shown here. Equal values may be shown once.

Columns and labels:
[1] = plasma concentration above which G tri-phosphate levels no longer increase; patients with leukemia; cited from earlier work
[2] = Drug association efficiency (AE %) of GT DcNPs by dialysis under sink conditions; type: physicochemical; conditions: in vitro dialysis under sink conditions, 4 h, batches 1-5 and average
Experimental: Ethanol was removed by controlled solvent evaporation at 60° C., followed by vacuum desiccation to remove residual solvent. The dry film was rehydrated to 100 mM lipids in 0.45% NaCl with 20 mM NaHCO3 buffer at 60° C. for 2 h. Particle size was reduced at ˜40° C. using a bath sonicator (Avanti Polar Lipids, Inc. Alabaster, Ala.) (5 min on, […], 3 cycles). GT DcNP formulations were stored at room temperature for further use. Particle size was determined by a NICOMP 380 ZLS (Particle Sizing Systems, Santa Barbara, Calif.). Drug extraction with acetonitrile followed by HPLC were used to quantify drugs in formulations. Drug association was measured by dialysis (6-8 kDa) of DcNP against 0.9% NaCl 20 mM NaHCO3 buffer for 4 h and quantification by HPLC.
Drug association efficiency (AE %) was determined by dialyzing 100 μl of the DcNP suspension (6-8 k MWCO) against 1000×volume (100 mL, pH=7.4) of bicarbonate buffered saline for 4 hours at room temperature. Drugs were extracted by acetonitrile and drug concentrations in pre and post-dialysis DcNP suspensions were measured with a Shimadzu HPLC-UV system (Kyoto, Japan). Chromatographic separation was achieved using a Kinetex C18 column (100 Å, 5 μm, 4.6 mm×100 mm) (Phenomenex, Torrance, Calif.). The flow rate was set to 1.0 mL/min with a 10 μl sample injection volume. The mobile phase for separation consisted of pump A (Acetonitrile) and B (10 mM Ammonium Acetate in water). The gradient program used was as follows: pump B was set to 40%, and increased to 100% over 5 minutes. […] AE % was calculated as the […] concentrations of G or T.

[3] = test system: metastatic breast cancer; conditions: cited from earlier work
[4] = test system: MOLT-4 cells; test: Leukemic cell uptake of free versus DcNP-associated drug, MOLT-4; type: cell-based, human
Experimental: FIGS. 13A-13D are a series of graphs showing the intracellular drug concentrations following incubation with free or DcNP-bound drug. Three leukemic cell lines were incubated with either free or DcNP-bound drug over four hours, and intracellular drug concentration was measured via LC-MS/MS. Both free drugs show relatively little drug uptake compared to the DcNP formulation. Free drug concentrations are roughly a quarter of the DcNP drug concentrations.
To quantify drug concentrations (both DcNP-bound and free drug), an extraction protocol was established to quantify venetoclax and zanubrutinib. In short, drug was solubilized by diluting the sample into ethyl acetate, liberating it from either the DcNP lipid matrix, mouse plasma, or both. Following centrifugation to remove organic material, the samples were dried with nitrogen gas, reconstituted in acetonitrile, and loaded onto an LC-MS/MS. Drug concentrations were quantified by comparing sample data with standard curves prepared from untreated mouse plasma spiked with known amounts of drug.
Separations were carried out on a Synergi column (100×2.0 mm) (Phenomenex, Torrance, USA). A C8 guard column (4.0×2.0 mm) was used (Phenomenex, USA). The separations were done under ambient temperature, and the flow rate was set to 0.55 ml/min. The mobile phase for the separations consisted of buffers A (water with 20 mM ammonium acetate) and B (acetonitrile). The single mobile phase ran for five minutes, and it consisted of 25% buffer A and 75% buffer B.
HL-60 cells were cultured, counted, and aliquoted into multiple 1.5 mL Eppendorf tubes. A free drug solution of ABT-199 and BGB-3111 (1:1 w/w) was added to half of the tubes, while a DcNP solution of identical drug concentrations was added to the second half of tubes. The cells in the tubes were then allowed to incubate normally. At preselected time points, one incubation tube from each group was removed from the incubator, and the cells inside were washed twice with media to remove external drug and DcNP's. Cells were then lysed with acetonitrile, and drug concentrations were quantified according to the aforementioned extraction and LC-MS/MS protocol.

[5] = Association efficiency of venetoclax and zanubrutinib with DcNP's by dialysis; type: physicochemical
Experimental: 85.4 mg DSPC, 33.6 mg DSPE-mPEG2000, 9.6 mg ABT-199, and 9.6 mg BGB-3111 were dissolved in 4 mL pre-warmed 70° C. tert-butyl alcohol. The solution was thoroughly mixed, lyophilized over 24 hrs, and reconstituted in 0.9% NaCl, 20 mM NaHCO3 buffer with trace TWEEN® 20. The resulting drug-combination, stabilized by lipid excipients and referred to as drug combination nanoparticle or DcNP's, were then filtered through an Acrodisc® CR syringe filter (0.2 μm PTFE Membrane, HPLC certified) and diluted with buffer solution to the desired concentration. Particle size was quantified using a NICOMP 380 ZLS (Zeta Potential/Particle Sizer). The extent of ABT-199 and BGB-3111 association with the DcNP particles in solution was analyzed via dialysis (6,000-8,000 molecular weight cutoff) under sink conditions; sink condition was achieved by dialyzing 200 μl of DcNP suspension against 200 mL buffer solution (1,000-fold volume change) for 4 hrs. The drug association efficiency (AE %) was determined by comparing the pre- and post-dialysis drug concentration ratios of each drug. Drug concentration was determined by the extraction drug in suspension and analyzed based on a LC-MS/MS assay as described below.
Following initial rehydration and without any sonication, particle size of the DcNP's with and without TWEEN20 was measured using the Zetasizer (FIG. 10). […] Without Tween20, DcNP size was primarily 39 nm in diameter (92%) with less than 8% of particles measuring 870 nm in diameter (FIG. 10). Particle size was determined via dynamic light scattering, and association efficiency (FIG. 11) is a normalized mass/mass ratio calculated by comparing amount of drug remaining associated with DcNP's compared to the overall amount of drug used to create the particles.

[6] = MOLT-4, incubation with free drug

peak intracellular drug concentration ([4]; MOLT-4, incubation with DcNP's) | peak intracellular drug concentration [4, 6] | Structure (SMILES) | target concentration in plasma [1] | AE % (association efficiency of drug to DcNP) [2] | AE % (association efficiency of drug to DcNP) ([2]; listed as G) | AE % (association efficiency of drug to DcNP) ([2]; listed as GEM) | AE % (association efficiency of drug to DcNP) ([2]; listed as GEM, mean) | Median survival ([3]; first-line treatment, combination versus paclitaxel only) | response rate ([3]; gemcitabine 1250 mg/m^2 IV day 1, day 8 and paclitaxel 175 mg/m^2 IV combination compared to paclitaxel alone) | AE % (association efficiency with the DcNP lipid platform) ([5]; with TWEEN20, day 1) | AE % (association efficiency with the DcNP lipid platform) ([5]; with TWEEN20, day 70) | AE % (association efficiency with the DcNP lipid platform) ([5]; without TWEEN20, day 1) | AE % (association efficiency with the DcNP lipid platform) ([5]; without TWEEN20, day 70)
– | – | Nc1ccn([C@@H]2O[C@H](CO)[C@@H](O)C2(F)F)c(=O)n1 [Gemcitabine, 4-amino-1-[(2R,4R,5R)-3,3-difluoro-4-hydroxy-5-(hydroxymethyl)oxolan-2-yl]pyrimidin-2-one] | 3 µg/mL | 9% | 9% and 9±1% | 10% and 8% and 7% | 9% | – | – | – | – | – | –
– | – | CC(=O)O[C@H]1C(=O)[C@@]2(C)[C@H]([C@H](OC(=O)c3ccccc3)[C@]3(O)C[C@H](OC(=O)[C@H](O)[C@@H](NC(=O)c4ccccc4)c4ccccc4)C(C)=C1C3(C)C)[C@]1(OC(C)=O)CO[C@@H]1C[C@@H]2O [Paclitaxel, [(1S,2S,3R,4S,7R,9S,10S,12R,15S)-4,12-diacetyloxy-15-[(2R,3S)-3-benzamido-2-hydroxy-3-phenylpropanoyl]oxy-1,9-dihydroxy-10,14,17,17-tetramethyl-11-oxo-6-oxatetracyclo[11.3.1.0^3,10.0^4,7]heptadec-13-en-2-yl] benzoate] | – | – | – | – | – | 15.8 months | 26.2% | – | – | – | –
718 ng/million cells | 176 ng/million cells | CC1(C)CCC(CN2CCN(c3ccc(C(=O)NS(=O)(=O)c4ccc(NCC5CCOCC5)c([N+](=O)[O-])c4)c(Oc4cnc5[nH]ccc5c4)c3)CC2)=C(c2ccc(Cl)cc2)C1 [Venetoclax, 4-[4-[[2-(4-chlorophenyl)-4,4-dimethylcyclohexen-1-yl]methyl]piperazin-1-yl]-N-[3-nitro-4-(oxan-4-ylmethylamino)phenyl]sulfonyl-2-(1H-pyrrolo[2,3-b]pyridin-5-yloxy)benzamide] | – | – | – | – | – | – | – | 100% | 99.91% | 100% | 100%
208 ng/million cells | 42 ng/million cells | C=CC(=O)N1CCC([C@@H]2CCNc3c(C(N)=O)c(-c4ccc(Oc5ccccc5)cc4)nn32)CC1 [Zanubrutinib, (7S)-2-(4-phenoxyphenyl)-7-(1-prop-2-enoylpiperidin-4-yl)-4,5,6,7-tetrahydropyrazolo[1,5-a]pyrimidine-3-carboxamide] | – | – | – | – | – | – | – | 98.52% | 93.05% | 99.99% | 95.50%
